Reference: patent US4008329A, “Substituted cyclohexanes, pharmaceutical compositions containing them and method of treatment involving their use” (priority 1974, dated 1977)
Read-outs that look alike come from different tables or passages of the source.

Experiments:
[1] = tested on: mice; experiment: Supramaximal electrical shock test (corneal electrodes); format: in vivo; conditions: Mus musculus, po, P.O., dose which protects 50% of the animals from tonic tension, read-out: ED 50 ELECTROSHOCK
[2] = tested on: depletion of serotonin (5HT) induced by H75/12; experiment: Test using H75/12: inhibition of serotonin depletion; format: in vivo; conditions: Mus musculus, ip, 30 min before H75/12, mice, read-out: Percentage of inhibition of depletion on 5 HT; for inhibition at 20 mg/kg: 20 mg/kg I.P.; for inhibition at 40 mg/kg: 40 mg/kg I.P.; for inhibition at 10 mg/kg: 10 mg/kg I.P.; for inhibition at 30 mg/kg: 30 mg/kg I.P.
Protocol: In the experiments carried out, the H 75/12 was administered on two occasions with an interval of two hours between them, in a proportion of 100mg/kg by intraperitoneal method.
In Table I hereafter, the first figure represents the first dose in mg/kg by intraperitoneal method, of the product according to the invention, administered thirty minutes before the injection of H75/12, and the second figure represents the percentage of inhibition of the depletion of serotonin in relation to a reference batch which has received only H75/12. The compounds signified by Compound Nos. 1-14 in Table 1 are indicated hereafter in Table II.

[3] = tested on: hypotension (H), tachycardia (T), and positive inotropism (I^+) induced by isoprenaline; experiment: Cardiovascular parameters: modification of isoprenaline-induced hypotension, tachycardia and positive inotropism; format: in vivo, chloralised dogs; conditions: Canis lupus familiaris
Protocol: Experiments were carried out on chloralised dogs: these consisted of measuring, as a percentage relative to the […] of reference animals, the modifications caused by the products of the invention, administered in a proportion of 5mg/kg by intravenous route, on hypotension (H), tachycardia (T), and positive inotropism (I^+) induced by isoprenaline previously administered in a proportion of 0.5μg/kg by intravenous route.

[4] = LD50 oral, acute toxicity; conditions: mouse, in vivo; oral administration; mice
[5] = 5 mg/kg intravenous, isoprenaline 0.5 μg/kg intravenous, chloralised dogs, read-out: Cardiovascular parameters, H (hypotension)
[6] = 5 mg/kg intravenous, isoprenaline 0.5 μg/kg intravenous, chloralised dogs, read-out: Cardiovascular parameters, I^+ (positive inotropism)
[7] = 5 mg/kg intravenous, isoprenaline 0.5 μg/kg intravenous, chloralised dogs, read-out: Cardiovascular parameters, T (tachycardia)

Structure (SMILES)	ED50 [1]	inhibition at 20 mg/kg [2]	change in vivo at 5 mg/kg [3, 5]	change in vivo at 5 mg/kg [3, 6]	change in vivo at 5 mg/kg [3, 7]	change in vivo at 5 mg/kg ([3]; iv, read-out: Cardiovascular parameters, H (hypotension))	change in vivo at 5 mg/kg ([3]; iv, read-out: Cardiovascular parameters, I^+ (positive inotropism))	change in vivo at 5 mg/kg ([3]; iv, read-out: Cardiovascular parameters, T (tachycardia))	inhibition at 40 mg/kg [2]	inhibition at 10 mg/kg [2]	LD50 [4]	inhibition at 30 mg/kg [2]
CC(Cc1ccccc1)NC1CCCC(Oc2ccc(F)cc2)C1O (stereo not shown) [compound 12]	< 50 mg/kg	120%	35%	0%	-35%	–	–	–	–	–	–	–
CC(C)NCC(O)COc1cccc2ccccc12 (stereo not shown) [PROPRANOLOL, propranolol, reference compound]	–	–	–	–	–	-100%	-98%	-92%	–	–	–	–
CN(C)C1CCCC(Oc2ccc(Cl)cc2)C1O (stereo not shown) [compound 14]	–	–	0%	0%	0%	–	–	–	38%	–	–	–
CC(C)CCNC1CCCC(Oc2ccc(Cl)cc2)C1O (stereo not shown) [compound 4]	25 mg/kg	–	0%	0%	0%	–	–	–	–	59%	–	–
CC(Cc1ccccc1)NC1CCCC(Oc2ccccc2)C1O (stereo not shown) [compound 11]	–	–	0%	-10%	-60%	–	–	–	118%	–	–	–
CC(C)NC1CCCC(Oc2ccc(F)cc2)C1O (stereo not shown) [compound 8]	200 mg/kg	–	0%	-27%	-10%	–	–	–	59%	–	–	–
CC(C)NC1CCCC(Oc2cccc(Cl)c2)C1O (stereo not shown) [Compound No. 1, 2-hydroxy-3-(3'-chloro-phenoxy)-N-isopropyl-cyclohexylamine]	100 mg/kg	–	0%	0%	0%	–	–	–	99%	–	588 mg/kg	–
CC(C)CCNC1CCCC(Oc2cccc(C(F)(F)F)c2)C1O (stereo not shown) [compound 7]	30 mg/kg	–	-50%	-38%	-50%	–	–	–	–	–	–	93%
CN(C)C1CCCC(Oc2ccc(F)cc2)C1O (stereo not shown) [compound 9]	250 mg/kg	18%	30%	25%	9%	–	–	–	–	–	–	–
CC(C)CNC1CCCC(Oc2ccc(Cl)cc2)C1O (stereo not shown) [compound 3]	100 mg/kg	–	0%	0%	0%	–	–	–	–	30%	–	–
CC(C)NC1CCCC(Oc2ccc(Cl)cc2)C1O (stereo not shown) [compound 2]	300 mg/kg	–	30%	-15%	-20%	–	–	–	42%	–	–	–
CC(C)NC1CCCC(Oc2ccccc2)C1O (stereo not shown) [compound 5]	–	–	0%	25%	-39%	–	–	–	26%	–	–	–
NC1CCCC(Oc2ccc(Cl)cc2)C1O (stereo not shown) [compound 13]	–	–	0%	0%	0%	–	–	–	62%	–	–	–
CCCCNC1CCCC(Oc2cccc(Cl)c2)C1O (stereo not shown) [compound 10]	80 mg/kg	–	0%	0%	0%	–	–	–	–	–	–	92%
CC(C)NC1CCCC(Oc2cccc(C(F)(F)F)c2)C1O (stereo not shown) [compound 6]	< 100 mg/kg	–	-18%	0%	-20%	–	–	–	74%	–	–	–
